Results published in patent publication US10479782B2, “Forms of lumacaftor and processes for the preparation thereof” (Mylan Laboratories LImited, priority 2015, dated 2019).

What was measured:
[1] = Storage stability, chemical (purity by HPLC analysis); assay type: physicochemical
Description: Thus, in addition to PXRD analyses, HPLC analyses were also performed. HPLC separations may be performed on an HPLC column and detector system, such as an Kromasil 100 C18 column (150×4.6 mm, 3.5 μm) or its equivalent using a UV detector set at 220 nm with a column oven temperature of about 30° C. A flow rate of 1.0 mL/min with an injection volume of 10 μL may be used, with a run time of approximately 35 minutes.
[…] The samples were tested for stability by PXRD analysis and for purity by HPLC analysis.
(§1) As an example, Table 1 below provides data collected on amorphous lumacaftor.
(§2) As another example, Table 2 below provides data collected on crystalline lumacaftor ethyl acetate solvate and the crystalline lumacaftor acetic acid solvate.

[2] = Storage stability, physical (PXRD analysis); assay type: physicochemical
Description: Amorphous lumacaftor as prepared by methods herein may be characterized as amorphous by powder X-ray diffraction (PXRD). Thus, samples of amorphous lumacaftor were analyzed by X-ray diffraction on a BRUKER D-8 Discover powder diffractometer equipped with a goniometer of θ/2θ configuration and Lynx Eye detector. The Cu-anode X-ray tube was operated at 40 kV and 30 mA. The experiments were conducted over the […] of 2.0°-50.0°, 0.030° step size, and 0.4 seconds step time.
(§3) Another aspect of the present invention provides a crystalline lumacaftor acetic acid solvate. The crystalline lumacaftor acetic acid solvate prepared by methods disclosed herein may be characterized by PXRD. Thus, PXRD analyses of the crystalline lumacaftor acetic acid solvate were carried out on a PANalytical, X'Pert PRO powder diffractometer equipped with goniometer of θ/θ configuration and X'Celerator detector. The Cu-anode X-ray tube was operated at 40 kV and 30 mA. The experiments were conducted over the 2θ range of 2.0°-50.0°, 0.030° step size, and 50 seconds step time.
as §3, with “The” for “Another aspect of the present invention provides a crystalline”, “ethyl acetate” for “acetic acid solvate. The crystalline lumacaftor acetic acid”, “the” for “the crystalline”, “ethyl acetate” for “acetic acid”, “is” for “was”, “0.0300” for “0.030°”
The physical and chemical stabilities of the crystalline lumacaftor acetic acid solvate and the crystalline lumacaftor ethyl acetate solvate were determined by storing samples of each at 40° C./75% relative humidity (RH) and at 25° C./60% RH for six months. The samples were tested for stability by PXRD analysis and for purity by HPLC analysis.
as §1, §2

[3] = storage at 25° C./60% RH, 1 months
[4] = storage at 25° C./60% RH, 2 months
[5] = storage at 25° C./60% RH, 3 months
[6] = storage at 25° C./60% RH, 15 days
[7] = storage at 25° C./60% RH, Initial
[8] = stored for 3 months at 5±3° C. and 25° C./60% relative humidity (RH)
[9] = storage at 25° C./60% RH, 6 months
[10] = storage at 40° C./75% RH, 1 months
[11] = storage at 40° C./75% RH, 2 months
[12] = storage at 40° C./75% RH, 3 months
[13] = storage at 40° C./75% RH, 6 months
[14] = storage at 40° C./75% RH, 15 days
[15] = storage at 40° C./75% RH, Initial
[16] = stored for 6 months at 25° C./60% and 40° C./75% relative humidity (RH)

Compound	HPLC Purity (%) [1, 3] [%]	HPLC Purity (%) [1, 4] [%]	HPLC Purity (%) [1, 5] [%]	HPLC Purity (%) [1, 6] [%]	HPLC Purity (%) [1, 7] [%]	PXRD [2, 3]	PXRD [2, 4]	PXRD [2, 5]	PXRD [2, 6]	PXRD [2, 7]	HPLC Purity (%) [1, 9] [%]	HPLC Purity (%) [1, 10] [%]	HPLC Purity (%) [1, 11] [%]	HPLC Purity (%) [1, 12] [%]	HPLC Purity (%) [1, 13] [%]	HPLC Purity (%) [1, 14] [%]	HPLC Purity (%) [1, 15] [%]	chemical degradation on storage [1, 16]	PXRD [2, 9]	PXRD [2, 10]	also measured
Cc1ccc(NC(=O)C2(c3ccc4c(c3)OC(F)(F)O4)CC2)nc1-c1cccc(C(=O)O)c1 [Amorphous lumacaftor, 3-(6-(1-(2,2-difluorobenzo[d][1,3]dioxol-5-yl)cyclopropanecarboxamido)-3-methylpyridin-2-yl)benzoic acid]	99.63	99.60	99.65	99.67	99.65	Stable	Stable	Stable	Stable	Amorphous											HPLC Purity (%) ([1]; storage at 5 ± 3° C., 1 months): 99.61%; HPLC Purity (%) ([1]; storage at 5 ± 3° C., 2 months): 99.63%; HPLC Purity (%) ([1]; storage at 5 ± 3° C., 3 months): 99.64%; HPLC Purity (%) ([1]; storage at 5 ± 3° C., 15 days): 99.67%; HPLC Purity (%) ([1]; storage at 5 ± 3° C., Initial): 99.65%; chemical degradation on storage [1, 8]: no significant chemical degradation; PXRD ([2]; storage at 5 ± 3° C., 1 months): Stable; PXRD ([2]; storage at 5 ± 3° C., 2 months): Stable; PXRD ([2]; storage at 5 ± 3° C., 3 months): Stable; PXRD ([2]; storage at 5 ± 3° C., 15 days): Stable; PXRD ([2]; storage at 5 ± 3° C., Initial): Amorphous; change in PXRD pattern on storage [2, 8]: no change in PXRD pattern
Cc1ccc(NC(=O)C2(c3ccc4c(c3)OC(F)(F)O4)CC2)nc1-c1cccc(C(=O)O)c1 [Lumacaftor acetic acid solvate, 3-(6-(1-(2,2-difluorobenzo[d][1,3]dioxol-5-yl)cyclopropanecarboxamido)-3-methylpyridin-2-yl)benzoic acid]	99.92	99.92	99.89	99.92	99.84	Stable	Stable	Stable	Stable	Crystalline	99.93	99.93	99.93	99.89	99.92	99.92	99.84	neither the lumacaftor ethyl acetate solvate nor the lumacaftor acetic acid solvate display any significant chemical degradation	Stable	Stable	PXRD [2, 11]: Stable; PXRD [2, 12]: Stable; PXRD [2, 13]: Stable; PXRD [2, 14]: Stable; PXRD [2, 15]: Crystalline; change in PXRD pattern on storage [2, 16]: neither the lumacaftor ethyl acetate solvate nor the lumacaftor acetic acid solvate display any significant chemical degradation or any change in PXRD pattern
Cc1ccc(NC(=O)C2(c3ccc4c(c3)OC(F)(F)O4)CC2)nc1-c1cccc(C(=O)O)c1 [Lumacaftor ethyl acetate solvate, 3-(6-(1-(2,2-difluorobenzo[d][1,3]dioxol-5-yl)cyclopropanecarboxamido)-3-methylpyridin-2-yl)benzoic acid]	99.93	99.95	99.92	99.95	99.97	Stable	Stable	Stable	Stable	Crystalline	99.95	99.94	99.95	99.95	99.95	99.95	99.97	neither the lumacaftor ethyl acetate solvate nor the lumacaftor acetic acid solvate display any significant chemical degradation	Stable	Stable	PXRD [2, 11]: Stable; PXRD [2, 12]: Stable; PXRD [2, 13]: Stable; PXRD [2, 14]: Stable; PXRD [2, 15]: Crystalline; change in PXRD pattern on storage [2, 16]: neither the lumacaftor ethyl acetate solvate nor the lumacaftor acetic acid solvate display any significant chemical degradation or any change in PXRD pattern
